pKi: −log10 of the molar value.
Experiments:
Type in all cases: biochemical
ENPP1 [1] = molecular target: T1, ENPP1 (Homo sapiens, UniProt P22413); assay: ENPP1 enzyme assay with AMP-pNP substrate (hydrolysis of ATP analog); details: AMP-pNP substrate (ATP analog); Ki from IC50 by Cheng-Prusoff; read-out: ENPP1 Inhibition _AMP-pNP: Ki
T1 sequence (P22413 1-925): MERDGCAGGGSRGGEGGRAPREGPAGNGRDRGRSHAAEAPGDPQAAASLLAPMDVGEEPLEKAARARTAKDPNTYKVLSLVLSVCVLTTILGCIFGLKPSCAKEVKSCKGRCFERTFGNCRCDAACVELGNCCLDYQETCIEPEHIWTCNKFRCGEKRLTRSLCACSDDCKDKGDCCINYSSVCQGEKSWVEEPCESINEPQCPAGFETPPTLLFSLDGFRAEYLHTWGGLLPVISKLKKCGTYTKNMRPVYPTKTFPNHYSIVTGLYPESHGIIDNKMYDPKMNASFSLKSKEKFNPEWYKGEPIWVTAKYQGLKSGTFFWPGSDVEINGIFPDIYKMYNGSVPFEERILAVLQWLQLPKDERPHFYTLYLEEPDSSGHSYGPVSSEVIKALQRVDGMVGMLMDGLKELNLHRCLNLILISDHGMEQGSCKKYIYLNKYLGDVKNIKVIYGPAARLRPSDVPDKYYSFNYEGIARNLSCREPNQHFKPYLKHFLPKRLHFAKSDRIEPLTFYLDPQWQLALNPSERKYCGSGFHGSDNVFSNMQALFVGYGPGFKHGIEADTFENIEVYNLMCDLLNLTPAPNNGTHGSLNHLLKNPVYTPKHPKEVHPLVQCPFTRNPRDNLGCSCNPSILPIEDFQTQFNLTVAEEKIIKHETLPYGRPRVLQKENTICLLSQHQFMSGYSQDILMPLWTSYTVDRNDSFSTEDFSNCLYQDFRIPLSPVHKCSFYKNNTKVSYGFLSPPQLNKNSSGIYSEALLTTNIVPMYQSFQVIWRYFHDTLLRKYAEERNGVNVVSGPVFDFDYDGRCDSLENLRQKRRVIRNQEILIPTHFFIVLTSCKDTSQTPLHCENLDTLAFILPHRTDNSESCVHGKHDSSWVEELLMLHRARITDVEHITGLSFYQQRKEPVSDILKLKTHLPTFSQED
Procedure, shortened: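 Human recombinant ENPP1 (60 ng/well) with 300 µM AMP-pNP in 50 mM Tris-HCl pH 8.5, 250 mM NaCl, 0.5 mM CaCl2, 1 µM ZnCl2, 0.1% DMSO, 20 min at 37 °C.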

ENPP1 [2] = molecular target: T1, ENPP1; assay: Substrate selectivity ratio, inhibition of cGAMP hydrolysis versus ATP hydrolysis; details: ratio Ki AMP-pNP / Ki cGAMP
Method: The selectivity ratios for inhibition of cGAMP hydrolysis versus ATP hydrolysis were then calculated as follows: […]

ENPP1 [3] = molecular target: T1, ENPP1; assay: Indirect quantitation of 2',3'-cGAMP hydrolysis (AMP-Glo Assay kit); details: cGAMP substrate; Ki from IC50 by Cheng-Prusoff; read-out: ENPP1 Inhibition -cGAMP: Ki

Compound	pKi (ENPP1 [1])	Substrate Selectivity: Ki_AMP-pNP/Ki_cGAMP (ENPP1 [2])	pKi (ENPP1 [3])
COc1nc2ncnc(N3CCC(CCNS(N)(=O)=O)CC3)c2n1C [Example 218, N-(2-(1-(8-methoxy-7-methyl-7H-purin-6-yl)piperidin-4-yl)ethyl)sulfamide]	< 6.00	>42.9	6.00 to 7.00
COc1cc2ncnc(N3CCC(CNS(N)(=O)=O)CC3)c2cc1OC [Example 339, N-((1-(6,7-dimethoxyquinazolin-4-yl)piperidin-4-yl)methyl)sulfamide]	6.00 to 7.00	38.5	> 7.00
COc1cc2nccc(N3CCC(CCNS(=O)(=O)NC(C)=O)CC3)c2cc1OC [Example 203, N-(N-(2-(1-(6,7-dimethoxyquinolin-4-yl)piperidin-4-yl)ethyl)sulfamoyl)acetamide]	< 6.00	> 33.7	6.00 to 7.00
COc1cc2ncc(F)c(N3CCC(CCNS(N)(=O)=O)CC3)c2cc1OC [Example 66, N-(2-(1-(3-fluoro-6,7-dimethoxyquinolin-4-yl)piperidin-4-yl)ethyl)sulfamide]	> 7.00	35.1	> 7.00
COc1cc2ncc(C#N)c(N3CCC4(CC3)CCN(S(N)(=O)=O)C4)c2cc1OC [Example 64, 8-(3-cyano-6,7-dimethoxyquinolin-4-yl)-2,8-diazaspiro [4.5] decane-2-sulfonamide]	> 7.00	11.9	> 7.00
COc1cc2ncnc(N3CCC(CCNS(N)(=O)=O)CC3)c2cc1F [Example 206, N-(2-(1-(6-fluoro-7-methoxyquinazolin-4-yl)piperidin-4-yl)ethyl)sulfamide]	6.00 to 7.00	39.6	> 7.00
COc1cc2ncc(C#N)c(-c3ccc4c(c3)CN(S(N)(=O)=O)CC4)c2cc1OC [Example 149, 7-(3-cyano-6,7-dimethoxyquinolin-4-yl)-3,4-dihydroisoquinoline-2(1H)-sulfonamide]	> 7.00	12.2	> 7.00
COc1cc2ncc(F)c(-c3ccc4c(c3)CN(S(N)(=O)=O)CC4)c2cc1OC [Example 229, 7-(3-fluoro-6,7-dimethoxyquinolin-4-yl)-3,4-dihydroisoquinoline-2(1H)-sulfonamide]	> 7.00	27.2	> 7.00
COc1ccc2c(N3CCC(CCNS(N)(=O)=O)CC3)ncnc2c1 [Example 198, N-(2-(1-(7-methoxyquinazolin-4-yl)piperidin-4-yl)ethyl)sulfamide]	6.00 to 7.00	39.2	> 7.00
COc1cc2ncnc(N3CCC(CCC(=O)O)CC3)c2cc1OC [Example 171, 3-(1-(6,7-dimethoxyquinazolin-4-yl)piperidin-4-yl)propanoic acid]	< 6.00	>50.7	6.00 to 7.00
COc1cc2nccc(NC3CCC(NS(N)(=O)=O)CC3)c2cc1OC (stereo not drawn) [Example 307, N-(4-((6,7-dimethoxyquinolin-4-yl)amino)cyclohexyl)sulfamide]	< 6.00	>15.5	6.00 to 7.00
COc1cc2ncnc(N3CCC(CCN)CC3)c2cc1OC [Example 334, 2-(1-(6,7-dimethoxyquinazolin-4-yl)piperidin-4-yl)ethan-1-amine]	< 6.00	>414	> 7.00

Next, values leading:

pKi (ENPP1 [1])	Substrate Selectivity: Ki_AMP-pNP/Ki_cGAMP (ENPP1 [2])	pKi (ENPP1 [3])	Compound
> 7.00	48.4	> 7.00	COc1cc2nccc(-c3ccc(CNS(N)(=O)=O)cc3)c2cc1OC [Example 225, N-(4-(6,7-dimethoxyquinolin-4-yl)benzyl)sulfamide]
< 6.00	>14	6.00 to 7.00	COc1ccc2c(Oc3ccc(NS(N)(=O)=O)cc3)c(C(F)(F)F)cnc2c1 [Example 407, N-(4-((7-methoxy-3-(trifluoromethyl)quinolin-4-yl)oxy)phenyl)sulfamide]
< 6.00	>97.7	6.00 to 7.00	COc1cc2c(-c3ccc(CNS(N)(=O)=O)cc3)c(C#N)cnc2cn1 [Example 235, N-(4-(3-cyano-6-methoxy-1,7-naphthyridin-4-yl)benzyl)sulfamide]
< 6.00	>153	6.00 to 7.00	COc1ccc2c(-n3cc(Cl)c4cc(NS(N)(=O)=O)ccc43)ccnc2c1 [Example 413, N-(3-chloro-1-(7-methoxyquinolin-4-yl)-1H-indol-5-yl)sulfamide]
< 6.00	>133	> 7.00	NS(=O)(=O)N1CCc2ccc(-c3ccnc4cc(F)ccc34)cc2C1 [Example 311, 7-(7-fluoroquinolin-4-yl)-3,4-dihydroisoquinoline-2(1H)-sulfonamide]
< 6.00	36	> 7.00	COc1ccc2c(-c3ccc(CNS(N)(=O)=O)cn3)ccnc2c1 [Example 387, ((6-(7-methoxy quinolin-4-yl)pyridin-3-yl)methyl)sulfamide]
6.00 to 7.00	24.7	> 7.00	COc1cc2ncnc(NCc3ccc(S(N)(=O)=O)cc3)c2cc1OC [Example 182, 4-(((6,7-dimethoxyquinazolin-4-yl)amino)methyl)benzene sulfonamide]
> 7.00	24.2	> 7.00	COc1ccc2c(Oc3ccc(NS(N)(=O)=O)cc3)ccnc2n1 [Example 73, N-(4-((7-methoxy-1,8-naphthyridin-4-yl)oxy)phenyl)sulfamide]
< 6.00	> 126	6.00 to 7.00	COc1cc2nccc(N3CCCc4cc(NS(N)(=O)=O)ccc43)c2cc1OC [Example 291, N-(6′,7′-dimethoxy-3,4-dihydro-2H-[1,4′-biquinolin]-6-yl)sulfamide]
6.00 to 7.00	54	> 7.00	COc1ccc2c(-c3ccc(CNS(N)(=O)=O)nc3)ccnc2c1 [Example 354, N-((5-(7-methoxyquinolin-4-yl)pyridin-2-yl)methyl)sulfamide]
< 6.00	> 40.3	> 7.00	NS(=O)(=O)NCc1ccc(-c2ccnc3cc(F)ccc23)cc1 [Example 296, N-(4-(7-fluoroquinolin-4-yl)benzyl)sulfamide]
< 6.00	>133	> 7.00	COc1ccc2c(N3CCc4cc(NS(N)(=O)=O)ccc43)ncnc2c1 [Example 392, N-(1-(7-methoxyquinazolin-4-yl)indolin-5-yl)sulfamide]
> 7.00	6.3	> 7.00	COc1cc2nccc(NCc3ccc(S(N)(=O)=O)cc3)c2cc1F [Example 56, 4-(((6-fluoro-7-methoxyquinolin-4-,yl)amino)methyl)benzenesulfonamide]
< 6.00	>16.2	6.00 to 7.00	COc1cc2nccc(Oc3cc(F)c(NS(N)(=O)=O)c(F)c3)c2cc1OC [Example 271, N-(4-((6,7-dimethoxyquinolin-4-yl)oxy)-2,6-difluorophenyl)sulfamide]
< 6.00	>20	6.00 to 7.00	COc1ccc2c(-c3ccc(NS(N)(=O)=O)cc3)ccnc2c1 [Example 396, N-(4-(7-methoxyquinolin-4-yl)phenyl)sulfamide]
6.00 to 7.00	22.5	> 7.00	COc1ccc2c(NCc3ccc(NS(N)(=O)=O)cc3)ccnc2c1 [Example 267, N-(4-(((7-methoxyquinolin-4-yl)amino)methyl)phenyl)sulfamide]
6.00 to 7.00	22.4	> 7.00	COc1cc2ncnc(N3CCc4cc(NS(N)(=O)=O)ccc4C3)c2cc1OC [Example 137, N-(2-(6,7-dimethoxyquinazolin-4-yl)-1,2,3,4-tetrahydroisoquinolin-6-yl)sulfamide]
